Test results reported in PubChem BioAssay (NCI).
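All cell lines were grown in 96-well plates and treated with compound for 48 hours. Here, GI50 denotes the concentration required for 50% inhibition of growth. Definition used: TGI = concentration required for complete inhibition of growth.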 Where a SMILES comes first, the peptide text is derived from it. [ ]: non-standard residue; d: D form. The star is where a group is joined. Ac5c = NC1(C(=O)O)CCCC1; Cbz = O=C(OCc1ccccc1)*; Boc = CC(C)(C)OC(=O)*; tBu = CC(C)(C)*

Legend:
Test in all cases: NCI anticancer screen, dose series, 48 h; in the data active means GI50 below about 0.43 µM; inactive means the rest
M14 melanoma = test system: M14 melanoma
EKVX NSCLC = test system: EKVX NSCLC
MOLT-4 leukemia = test system: MOLT-4 leukemia
NCI-H23 lung = test system: NCI-H23 lung
OVCAR-3 ovarian = test system: OVCAR-3 ovarian
SR leukemia = test system: SR leukemia
CCRF-CEM leukemia = test system: CCRF-CEM leukemia
KM12 colon = test system: KM12 colon
RXF 393 renal = test system: RXF 393 renal
HOP-92 NSCLC = test system: HOP-92 NSCLC
HT29 colon = test system: HT29 colon
SNB-75 CNS = test system: SNB-75 CNS
K-562 leukemia = test system: K-562 leukemia
UACC-62 melanoma = test system: UACC-62 melanoma
SK-MEL-5 melanoma = test system: SK-MEL-5 melanoma
MALME-3M melanoma = test system: MALME-3M melanoma
SF-539 CNS = test system: SF-539 CNS
786-0 renal = test system: 786-0 renal
HOP-62 NSCLC = test system: HOP-62 NSCLC
OVCAR-8 ovarian = test system: OVCAR-8 ovarian
SN12C renal = test system: SN12C renal
A549 NSCLC = test system: A549 NSCLC
CAKI-1 renal = test system: CAKI-1 renal
SW-620 colon = test system: SW-620 colon
LOX IMVI melanoma = test system: LOX IMVI melanoma
IGROV1 ovarian = test system: IGROV1 ovarian
UACC-257 melanoma = test system: UACC-257 melanoma
HCT-116 colon = test system: HCT-116 colon
HCC-2998 colon = test system: HCC-2998 colon
SK-MEL-2 melanoma = test system: SK-MEL-2 melanoma
COLO 205 colon = test system: COLO 205 colon
TK-10 renal = test system: TK-10 renal
SF-268 CNS = test system: SF-268 CNS
SF-295 CNS = test system: SF-295 CNS
HCT-15 colon = test system: HCT-15 colon
A498 renal = test system: A498 renal
OVCAR-4 ovarian = test system: OVCAR-4 ovarian
NCI-H460 lung = test system: NCI-H460 lung
NCI-H522 lung = test system: NCI-H522 lung
U251 CNS = test system: U251 CNS
SK-MEL-28 melanoma = test system: SK-MEL-28 melanoma
HL-60(TB) leukemia = test system: HL-60(TB) leukemia
SK-OV-3 ovarian = test system: SK-OV-3 ovarian
ACHN renal = test system: ACHN renal
NCI-H226 lung = test system: NCI-H226 lung
OVCAR-5 ovarian = test system: OVCAR-5 ovarian
NCI/ADR-RES ovarian = test system: NCI/ADR-RES ovarian
SNB-19 CNS = test system: SNB-19 CNS
UO-31 renal = test system: UO-31 renal
MDA-MB-231 breast = test system: MDA-MB-231 breast
PC-3 prostate = test system: PC-3 prostate
BT-549 breast = test system: BT-549 breast
RPMI-8226 leukemia = test system: RPMI-8226 leukemia
HS 578T breast = test system: HS 578T breast
MCF7 breast = test system: MCF7 breast
MDA-MB-435 = test system: MDA-MB-435
DU-145 prostate = test system: DU-145 prostate

N/C(=N\N=C=C1C(=O)Nc2ccc(F)cc21)NO
65.9 µM: TGI (SNB-75 CNS)
> 100 µM: TGI (M14 melanoma) | TGI (EKVX NSCLC) | TGI (MOLT-4 leukemia) | TGI (NCI-H23 lung) | TGI (OVCAR-3 ovarian) | TGI (SR leukemia) | TGI (CCRF-CEM leukemia) | TGI (KM12 colon) | TGI (RXF 393 renal) | TGI (HOP-92 NSCLC) | TGI (HT29 colon) | TGI (K-562 leukemia) | TGI (UACC-62 melanoma) | TGI (SK-MEL-5 melanoma) | TGI (MALME-3M melanoma) | TGI (SF-539 CNS) | TGI (786-0 renal) | TGI (HOP-62 NSCLC) | TGI (OVCAR-8 ovarian) | TGI (SN12C renal) | TGI (A549 NSCLC) | TGI (CAKI-1 renal) | TGI (SW-620 colon) | TGI (LOX IMVI melanoma) | TGI (IGROV1 ovarian) | TGI (UACC-257 melanoma) | TGI (HCT-116 colon) | TGI (HCC-2998 colon) | TGI (SK-MEL-2 melanoma) | TGI (COLO 205 colon) | TGI (TK-10 renal) | TGI (SF-268 CNS) | TGI (SF-295 CNS) | TGI (HCT-15 colon) | TGI (A498 renal) | TGI (OVCAR-4 ovarian) | TGI (NCI-H460 lung) | TGI (NCI-H522 lung) | TGI (U251 CNS) | TGI (SK-MEL-28 melanoma) | TGI (HL-60(TB) leukemia) | TGI (SK-OV-3 ovarian) | TGI (ACHN renal)

COC(=O)C1(NC(=O)C(Cc2ccccc2)NC(=O)C(NC(=O)C(CCCCNC(=O)OC(C)(C)C)NC(=O)C(Cc2c[nH]c3ccccc23)NC(=O)C(Cc2ccccc2)NC(=O)OCc2ccccc2)C(C)OC(C)(C)C)CCCC1 (configuration not stated) (Cbz-FWK(Boc)T(tBu)F[Ac5c]-OMe; configuration not given here)
> 100 µM: TGI (NCI-H23 lung) | TGI (HOP-92 NSCLC) | TGI (UACC-257 melanoma) | TGI (NCI-H226 lung)

Cn1cc(-c2csc(-c3cn(C)c4ncccc34)n2)c2ccccc21
3.47 µM: TGI (NCI/ADR-RES ovarian)
1.3 µM: TGI (OVCAR-3 ovarian)
22.7 µM: TGI (OVCAR-8 ovarian)
25.3 µM: TGI (RPMI-8226 leukemia)
> 100 µM: TGI (EKVX NSCLC) | TGI (SN12C renal) | TGI (SW-620 colon) | TGI (LOX IMVI melanoma) | TGI (UACC-257 melanoma) | TGI (HCC-2998 colon) | TGI (PC-3 prostate) | TGI (MCF7 breast) | TGI (HCT-15 colon) | TGI (SK-MEL-28 melanoma)
13.5 µM: TGI (NCI-H460 lung)
1.05 µM: TGI (COLO 205 colon)
16.2 µM: TGI (SK-MEL-5 melanoma)
18.8 µM: TGI (HS 578T breast) | TGI (HL-60(TB) leukemia)
23.5 µM: TGI (DU-145 prostate)
> 76.7 µM: TGI (KM12 colon)
32.5 µM: TGI (CAKI-1 renal)
15.7 µM: TGI (SK-OV-3 ovarian)
44.3 µM: TGI (UACC-62 melanoma)
20.6 µM: TGI (NCI-H23 lung)
2.96 µM: TGI (RXF 393 renal)
16.6 µM: TGI (K-562 leukemia) | TGI (ACHN renal)
> 43.9 µM: TGI (SR leukemia)
14.1 µM: TGI (HOP-92 NSCLC)
26.7 µM: TGI (NCI-H226 lung)
4.16 µM: TGI (HT29 colon)
37.4 µM: TGI (SF-268 CNS)
19.4 µM: TGI (TK-10 renal)
44 µM: TGI (OVCAR-4 ovarian)
0.737 µM: TGI (SNB-75 CNS)
19 µM: TGI (HCT-116 colon)
16.8 µM: TGI (SK-MEL-2 melanoma)
13.3 µM: TGI (U251 CNS)
> 61.6 µM: TGI (CCRF-CEM leukemia)
inactive: GI50 (EKVX NSCLC) 0.906 µM | GI50 (MOLT-4 leukemia) 0.613 µM | GI50 (NCI-H23 lung) 0.752 µM | GI50 (OVCAR-5 ovarian) 0.876 µM | GI50 (MALME-3M melanoma) 0.647 µM | GI50 (786-0 renal) 0.588 µM | GI50 (HOP-62 NSCLC) 0.622 µM | GI50 (OVCAR-8 ovarian) 0.666 µM | GI50 (SNB-19 CNS) 0.574 µM | GI50 (SN12C renal) 3.07 µM | GI50 (A549 NSCLC) 0.634 µM | GI50 (UO-31 renal) 0.71 µM | GI50 (LOX IMVI melanoma) 0.652 µM | GI50 (IGROV1 ovarian) 1.28 µM | GI50 (UACC-257 melanoma) 13 µM | GI50 (MDA-MB-231 breast) 2.82 µM | GI50 (HCC-2998 colon) 1.15 µM | GI50 (TK-10 renal) 1 µM | GI50 (HS 578T breast) 0.451 µM | GI50 (SF-268 CNS) 1.12 µM | GI50 (DU-145 prostate) 0.436 µM | GI50 (A498 renal) 0.496 µM | GI50 (OVCAR-4 ovarian) 7.1 µM | GI50 (SK-MEL-28 melanoma) 1.23 µM | GI50 (NCI-H226 lung) 0.86 µM | GI50 (SK-OV-3 ovarian) 0.544 µM | GI50 (ACHN renal) 0.899 µM
41 µM: TGI (MALME-3M melanoma)
27 µM: TGI (SNB-19 CNS)
active: GI50 (M14 melanoma) 0.256 µM | GI50 (OVCAR-3 ovarian) 0.143 µM | GI50 (SR leukemia) 0.0961 µM | GI50 (CCRF-CEM leukemia) 0.368 µM | GI50 (KM12 colon) 0.242 µM | GI50 (RXF 393 renal) 0.299 µM | GI50 (HOP-92 NSCLC) 0.346 µM | GI50 (HT29 colon) 0.276 µM | GI50 (SNB-75 CNS) 0.191 µM | GI50 (K-562 leukemia) 0.103 µM | GI50 (NCI/ADR-RES ovarian) 0.135 µM | GI50 (UACC-62 melanoma) 0.325 µM | GI50 (SK-MEL-5 melanoma) 0.286 µM | GI50 (SF-539 CNS) 0.158 µM | GI50 (CAKI-1 renal) 0.373 µM | GI50 (SW-620 colon) 0.26 µM | GI50 (HCT-116 colon) 0.354 µM | GI50 (SK-MEL-2 melanoma) 0.405 µM | GI50 (PC-3 prostate) 0.397 µM | GI50 (COLO 205 colon) 0.229 µM | GI50 (BT-549 breast) 0.409 µM | GI50 (RPMI-8226 leukemia) 0.396 µM | GI50 (MCF7 breast) 0.322 µM | GI50 (SF-295 CNS) 0.274 µM | GI50 (MDA-MB-435) 0.0414 µM | GI50 (HCT-15 colon) 0.23 µM | GI50 (NCI-H460 lung) 0.336 µM | GI50 (NCI-H522 lung) 0.0889 µM | GI50 (U251 CNS) 0.404 µM | GI50 (HL-60(TB) leukemia) 0.283 µM
0.186 µM: TGI (MDA-MB-435)
1.16 µM: TGI (NCI-H522 lung)
> 66.4 µM: TGI (UO-31 renal)
23.8 µM: TGI (OVCAR-5 ovarian) | TGI (A549 NSCLC)
33.6 µM: TGI (IGROV1 ovarian)
18.1 µM: TGI (786-0 renal)
> 41.4 µM: TGI (M14 melanoma)
0.579 µM: TGI (SF-539 CNS)
8.65 µM: TGI (A498 renal)
37.8 µM: TGI (MDA-MB-231 breast)
> 52.2 µM: TGI (MOLT-4 leukemia)
19.3 µM: TGI (HOP-62 NSCLC)
12.6 µM: TGI (SF-295 CNS)
26.2 µM: TGI (BT-549 breast)
